The target in data set [1] is T1, Acremonium strictum gluco-oligosaccharide oxidase GOOX-VN (type strain CBS 346.70, V38 and N388), SEQ ID NO. 2 (Sarocladium strictum, UniProt D7PF15, A38V/S388N).
T1 sequence (D7PF15 1-474 A38V/S388N): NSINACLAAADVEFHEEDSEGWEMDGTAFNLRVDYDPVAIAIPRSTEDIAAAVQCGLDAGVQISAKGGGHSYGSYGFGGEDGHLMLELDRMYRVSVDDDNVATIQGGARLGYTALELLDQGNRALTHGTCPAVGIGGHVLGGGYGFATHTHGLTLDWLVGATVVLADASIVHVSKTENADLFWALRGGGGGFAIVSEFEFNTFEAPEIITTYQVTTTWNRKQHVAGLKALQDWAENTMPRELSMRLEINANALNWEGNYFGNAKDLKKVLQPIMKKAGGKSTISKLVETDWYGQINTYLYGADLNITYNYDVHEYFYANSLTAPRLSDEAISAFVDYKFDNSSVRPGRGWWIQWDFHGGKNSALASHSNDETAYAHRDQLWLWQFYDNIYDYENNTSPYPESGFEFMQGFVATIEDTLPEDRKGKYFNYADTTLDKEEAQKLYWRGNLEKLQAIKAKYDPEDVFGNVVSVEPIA
The data set is described as follows: Enzymatic assay, kinetic analysis (chromogenic H2O2 assay) of GOOX-VN. Particulars: for kcat: 37° C., pH 8.0.
Experimental: (§1) A chromogenic assay was used to measure hydrogen peroxide production (15). Reactions contained 0.1 mM 4aminoantipyrine (4AA), 1 mM phenol, 0.5 U horseradish peroxidase, 40 mM Tris-HCl (pH 8.0), and different substrates were initiated by adding 0.2 μg of enzymes to the 250 μL reaction mixture. The production of H2O2 was coupled to the oxidation of 4aminoantipyrine by horseradish peroxidase and detected at 500 nm. Reactions were incubated at 37° C. for 15 min to measure the specific activity of GOOX on 10 mM of monosaccharide or 1 mM of oligosaccharide.
(§2) At least 12 substrate concentrations were included to obtain kinetic parameters for each substrate. Initial rates were obtained by measuring reaction products every 30 s for 15 min at 37° C. and pH 8.0, and kinetic parameters were calculated using the Michaelis-Menten equation (GraphPad Prism5 Software).

The target of data set [2] is T2, Acremonium strictum gluco-oligosaccharide oxidase GOOX-VN variant 1 Y300A, SEQ ID NO. 6 (Sarocladium strictum, UniProt D7PF15, A38V/S388N/Y300A).
T2 sequence (D7PF15 1-474 A38V/Y300A/S388N): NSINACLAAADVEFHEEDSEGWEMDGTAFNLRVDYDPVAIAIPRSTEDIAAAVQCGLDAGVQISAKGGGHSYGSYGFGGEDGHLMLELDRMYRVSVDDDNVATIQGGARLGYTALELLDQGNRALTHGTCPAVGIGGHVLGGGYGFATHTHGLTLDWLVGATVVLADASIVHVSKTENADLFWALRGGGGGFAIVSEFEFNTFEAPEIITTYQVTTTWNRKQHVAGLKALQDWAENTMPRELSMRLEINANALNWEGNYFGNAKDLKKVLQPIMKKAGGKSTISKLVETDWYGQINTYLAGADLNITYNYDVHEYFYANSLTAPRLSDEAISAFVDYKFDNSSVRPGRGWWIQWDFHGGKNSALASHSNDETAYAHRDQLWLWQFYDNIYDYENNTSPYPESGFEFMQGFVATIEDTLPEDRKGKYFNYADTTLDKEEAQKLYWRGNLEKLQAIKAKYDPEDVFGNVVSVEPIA
Put plainly: Enzymatic assay, kinetic analysis (chromogenic H2O2 assay) of Y300A. Particulars: 37° C., pH 8.0.
Experimental: as §1, §2

Data set [3] has as its target T3, Acremonium strictum gluco-oligosaccharide oxidase GOOX-VN variant 3 W351F, SEQ ID NO. 8 (Sarocladium strictum, UniProt D7PF15, A38V/S388N/W351F).
T3 sequence (D7PF15 1-474 A38V/W351F/S388N): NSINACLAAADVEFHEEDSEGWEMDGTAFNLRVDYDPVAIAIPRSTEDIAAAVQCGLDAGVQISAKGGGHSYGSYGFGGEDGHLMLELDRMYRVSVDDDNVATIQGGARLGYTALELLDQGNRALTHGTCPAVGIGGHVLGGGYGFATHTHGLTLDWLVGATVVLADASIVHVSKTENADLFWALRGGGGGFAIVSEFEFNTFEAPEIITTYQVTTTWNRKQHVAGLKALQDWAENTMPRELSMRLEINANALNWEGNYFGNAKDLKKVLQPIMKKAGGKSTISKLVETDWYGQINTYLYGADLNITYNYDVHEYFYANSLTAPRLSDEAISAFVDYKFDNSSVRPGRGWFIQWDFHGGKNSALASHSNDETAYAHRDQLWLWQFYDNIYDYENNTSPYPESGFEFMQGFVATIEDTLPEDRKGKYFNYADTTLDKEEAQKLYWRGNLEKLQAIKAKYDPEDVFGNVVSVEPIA
Put plainly: Enzymatic assay, kinetic analysis (chromogenic H2O2 assay) of W351F. Particulars: for kcat: 37° C., pH 8.0.
Experimental: as §1, §2

Data set [4] deals with T4, Acremonium strictum gluco-oligosaccharide oxidase GOOX-VN variant 2 Y300N, SEQ ID NO. 7 (Sarocladium strictum, UniProt D7PF15, A38V/S388N/Y300N).
T4 sequence (D7PF15 1-474 A38V/Y300N/S388N): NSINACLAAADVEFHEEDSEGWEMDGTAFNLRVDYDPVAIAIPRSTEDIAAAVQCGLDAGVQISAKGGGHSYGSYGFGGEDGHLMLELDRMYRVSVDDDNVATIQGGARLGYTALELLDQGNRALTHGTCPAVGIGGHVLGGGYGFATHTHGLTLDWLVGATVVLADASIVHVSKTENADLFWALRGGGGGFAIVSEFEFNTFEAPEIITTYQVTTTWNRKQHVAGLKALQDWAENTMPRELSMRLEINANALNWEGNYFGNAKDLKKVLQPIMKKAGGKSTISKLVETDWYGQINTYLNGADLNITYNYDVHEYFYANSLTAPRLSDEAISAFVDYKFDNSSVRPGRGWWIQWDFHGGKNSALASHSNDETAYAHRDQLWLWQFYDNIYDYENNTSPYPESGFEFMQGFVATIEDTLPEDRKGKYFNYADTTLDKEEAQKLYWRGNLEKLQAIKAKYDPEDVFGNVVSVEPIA
Put plainly: Enzymatic assay, kinetic analysis (chromogenic H2O2 assay) of Y300N. The following applies: 37° C., pH 8.0.
Experimental: as §1, §2

Data set [5] is described as follows: Chromogenic H2O2 oxidase assay / kinetic analysis on cellotriose. Particulars: 1 mM cellotriose; 37° C., 15 min.
Experimental: as §1, §2
Data set [6] is described as follows: Chromogenic H2O2 oxidase assay on xylopentaose. Particulars: 1 mM xylopentaose; 37° C., 15 min.
Experimental: as §1
An additional eight mutations, identified as Y72F, Y72A, E247A, E314A, W351A, N388S, Q353N, Q384A, were created in GOOX-VN to assess the influence of these residues on the substrate selectivity of GOOX-VN. […] The specific activity of each mutant was then measured at 37° C. for 15 min using 10 mM mono-sugars and 1 mM oligosaccharides as performed for Y300A, Y300N, and W351F (Table 11).
Data set [7] in a line: Chromogenic H2O2 oxidase assay / kinetic analysis on cellobiose. Particulars: 1 mM cellobiose; 37° C., 15 min.

On to `OC[C@H]1OC(O)[C@H](O)[C@@H](O)[C@@H]1O` (some centres unmarked) [Glucose, glucose], for which the kcat in data set [1] came out at 7.485 ± 0.0917 s⁻¹; in data set [2], 13.22 ± 0.24 s⁻¹; in data set [3] it was 5.622 ± 0.08 s⁻¹; in data set [4], 10.81 ± 0.103 s⁻¹. Moreover, the “catalytic efficiency (in words)” value in data set [1] (among glucose, xylose, galactose, NAG) is reported as “highest catalytic efficiency”. The “change of Km versus GOOX-VN (in words)” value in data set [3] (W351F compared with GOOX-VN) is given as “increased”.
With `CC(=O)N[C@H]1C(O)O[C@H](CO)[C@@H](O)[C@@H]1O` (some centres unmarked) [NAG, N-acetylglucosamine], the figures for the kcat in data set [1], in data set [3] and in data set [4] were 8.078 ± 0.203 s⁻¹, 7.785 ± 0.718 s⁻¹ and 11.34 ± 0.113 s⁻¹, respectively.
Regarding `OC[C@H]1OC(O)[C@H](O)[C@@H](O)[C@H]1O` (some centres unmarked) [Galactose, galactose], the kcat in data set [1] stood at 7.152 ± 0.137 s⁻¹; in data set [2] it was 13.3 ± 0.245 s⁻¹; in data set [3], 6.56 ± 0.075 s⁻¹; in data set [4], 11.76 ± 0.0883 s⁻¹. In data set [3] (W351F compared with GOOX-VN), the “change of Km versus GOOX-VN (in words)” value is “decreased”. Besides, the “change of catalytic efficiency versus GOOX-VN (in words)” value in data set [3] (W351F compared with GOOX-VN) is recorded as “higher catalytic efficiency”.
As to `OC1OC[C@@H](O)[C@H](O)[C@H]1O` (some centres unmarked) [Xylose, xylose], the kcat in data set [1] stood at 5.248 ± 0.15 s⁻¹; in data set [2] it was 11.33 ± 0.137 s⁻¹; in data set [3], 4.618 ± 0.0633 s⁻¹; in data set [4], 9.932 ± 0.172 s⁻¹. The “change of Km versus GOOX-VN (in words)” value in data set [3] (W351F compared with GOOX-VN) was “increased”.
As for `OC1OC[C@@H](O[C@@H]2OC[C@@H](O[C@@H]3OC[C@@H](O)[C@H](O)[C@H]3O)[C@H](O)[C@H]2O)[C@H](O)[C@H]1O` (some centres unmarked) [Xylotriose, xylotriose], the kcat in data set [2] was 13.87 ± 0.11 s⁻¹; in data set [4] it was 11.97 ± 0.185 s⁻¹.
The corresponding values for `OC1OC[C@@H](O[C@@H]2OC[C@@H](O)[C@H](O)[C@H]2O)[C@H](O)[C@H]1O` (some centres unmarked) [Xylobiose, xylobiose] are 13.29 ± 0.122 s⁻¹ and 11.96 ± 0.125 s⁻¹.
The corresponding values for `OC[C@H]1O[C@@H](O[C@H]2[C@H](O)[C@@H](O)C(O)O[C@@H]2CO)[C@H](O)[C@@H](O)[C@@H]1O` (some centres unmarked) [Cellobiose, cellobiose] are 13.72 ± 0.258 s⁻¹ and 11.4 ± 0.187 s⁻¹.

B1: Y72F: GOOX-VN mutant with Y72F substitution (protein)
chain: NSINACLAAADVEFHEEDSEGWEMDGTAFNLRVDYDPVAIAIPRSTEDIAAAVQCGLDAGVQISAKGGGHSFGSYGFGGEDGHLMLELDRMYRVSVDDDNVATIQGGARLGYTALELLDQGNRALTHGTCPAVGIGGHVLGGGYGFATHTHGLTLDWLVGATVVLADASIVHVSKTENADLFWALRGGGGGFAIVSEFEFNTFEAPEIITTYQVTTTWNRKQHVAGLKALQDWAENTMPRELSMRLEINANALNWEGNYFGNAKDLKKVLQPIMKKAGGKSTISKLVETDWYGQINTYLYGADLNITYNYDVHEYFYANSLTAPRLSDEAISAFVDYKFDNSSVRPGRGWWIQWDFHGGKNSALASHSNDETAYAHRDQLWLWQFYDNIYDYENNTSPYPESGFEFMQGFVATIEDTLPEDRKGKYFNYADTTLDKEEAQKLYWRGNLEKLQAIKAKYDPEDVFGNVVSVEPIA
On to B1, for which the “Specific Activity of Enzyme Variants” value is 0.5 µmol/min/mg in data set [5], 0.4 µmol/min/mg in data set [6] and 0.2 µmol/min/mg in data set [7].

Source of the values: patent publication US20140057332A1, “GLUCO-OLIGOSACCHARIDE OXIDASES FROM ACREMONIUM STRICTUM AND USES THEREOF” (The Governing Council of the University of Toronto, priority 2011, published 2014).
